The results in this text go back to US20200308220A1, “AROMATIC-CATIONIC PEPTIDES CONJUGATED TO AN[…] THEIR USE IN TREATING COMPLEX REGIONAL PAIN SYNDROME” (priority 2015, published 2020).

As usually defined, the Ki is a measure of affinity in units of concentration, obtained from inhibition or displacement. High values mean a looser hold on the target, low ones a stronger hold on the target. The term IC50 denotes the point on the concentration scale where inhibition reaches its midpoint. Low readings indicate greater potency, high ones weaker potency. Broadly, the ED50 is the midpoint of the dose-response relation.

One data set deals with T1, δ receptors (Rattus norvegicus, UniProt P33533).
T1 construct: from tissue; host or cells: rat brain membranes
Kind of data set: Receptor binding, displacement of [3H]DSLET from rat brain membrane binding sites. The protocol: (§1) Peptide conjugates of Table 5 were tested in functional assays based on inhibition of electrically evoked contractions of the guinea pig ileum (GPI) and the mouse vas deferens (MVD). The GPI assay is representative for μ opioid receptor (MOR) interactions, whereas in the MVD assay opioid effects are primarily mediated by the δ opioid receptor (DOR). The assays were carried out as described in DiMaio et al., J. Med. Chem. (1982) 25, 1432-1438. Binding affinities for μ and δ receptors were determined by displacing, respectively, [^3H]DAMGO and [^3H]DSLET from rat brain membrane binding sites (see Schiller et al., Biochem. Biophys. Res. Commun. (1978) 85, 1332-1338).

The target of a further data set is T2, δ opioid receptor (DOR) (Mus musculus, UniProt P32300).
T2 construct: the guinea pig ileum (GPI) and the mouse vas deferens (MVD); from tissue; host or cells: mouse vas deferens
Briefly: Inhibition of electrically evoked contractions of the mouse vas deferens (MVD). In kind it is cell-based. The protocol: as §1

Another data set deals with T3, μ receptors (Rattus norvegicus, UniProt P33535).
T3 construct: from tissue; host or cells: rat brain membranes
Briefly: Receptor binding, displacement of [3H]DAMGO from rat brain membrane binding sites. The protocol:
as §1

The test system of another data set is CPIP rats. Briefly: Chronic post-ischemia pain (CPIP) rat model of CRPS-I, reversal of mechanical allodynia. The protocol:
H-Dmt-D-Arg-Phe-Lys(NH-TEMPO)-NH2 was tested in a chronic post-ischemia pain (CPIP) rat model (see Coderre et al., Pain (2004) 112, 94-105) of CRPS-I in comparison with [Dmt^1]DALDA and morphine (subcutaneous (s.c.) administration). The analgesic potencies (ED50 values) of the compounds were determined based on their ability to reverse mechanical allodynia in CPIP rats (Table 6).

Molecules are shown by their SMILES. Where a SMILES comes first, the peptide text is derived from it.

T1 sequence (P33533 whole entry): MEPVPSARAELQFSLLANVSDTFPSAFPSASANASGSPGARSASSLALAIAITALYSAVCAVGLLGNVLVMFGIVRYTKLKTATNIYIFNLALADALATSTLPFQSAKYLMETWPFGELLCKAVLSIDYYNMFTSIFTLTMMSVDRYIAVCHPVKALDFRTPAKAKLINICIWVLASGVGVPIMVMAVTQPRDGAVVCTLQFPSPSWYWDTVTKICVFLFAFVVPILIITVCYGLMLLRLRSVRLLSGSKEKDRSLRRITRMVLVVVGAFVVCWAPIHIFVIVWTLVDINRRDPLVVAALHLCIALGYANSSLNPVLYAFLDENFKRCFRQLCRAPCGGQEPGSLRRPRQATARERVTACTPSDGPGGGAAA
T3 sequence (P33535 whole entry): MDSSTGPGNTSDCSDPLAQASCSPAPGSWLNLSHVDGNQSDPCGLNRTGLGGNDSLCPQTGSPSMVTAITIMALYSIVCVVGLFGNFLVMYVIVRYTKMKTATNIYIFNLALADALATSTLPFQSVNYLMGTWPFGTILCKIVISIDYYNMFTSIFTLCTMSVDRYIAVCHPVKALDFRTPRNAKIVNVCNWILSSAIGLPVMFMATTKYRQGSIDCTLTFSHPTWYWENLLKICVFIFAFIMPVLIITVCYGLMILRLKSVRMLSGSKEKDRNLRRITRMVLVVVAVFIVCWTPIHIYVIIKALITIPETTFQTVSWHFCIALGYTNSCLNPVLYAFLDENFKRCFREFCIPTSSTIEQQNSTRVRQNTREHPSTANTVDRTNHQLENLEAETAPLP
T2 sequence (P32300 whole entry): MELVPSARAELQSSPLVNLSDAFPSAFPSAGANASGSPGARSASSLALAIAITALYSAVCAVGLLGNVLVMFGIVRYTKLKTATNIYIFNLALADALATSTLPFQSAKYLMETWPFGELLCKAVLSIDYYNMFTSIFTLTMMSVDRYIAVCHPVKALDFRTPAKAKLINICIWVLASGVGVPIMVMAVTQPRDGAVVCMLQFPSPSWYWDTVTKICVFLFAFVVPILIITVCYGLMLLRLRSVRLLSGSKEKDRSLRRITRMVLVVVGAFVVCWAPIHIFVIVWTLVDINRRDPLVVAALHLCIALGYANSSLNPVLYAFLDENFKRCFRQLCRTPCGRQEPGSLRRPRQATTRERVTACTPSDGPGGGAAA

As for `Cc1cc(O)cc(C)c1C[C@H](N)C(=O)N[C@H](CCCNC(=N)N)C(=O)N[C@@H](Cc1ccccc1)C(=O)N[C@@H](CCCCN)C(=O)NCCC(=O)NC1CC(C)(C)N([O])C(C)(C)C1` [H-Dmt-D-Arg-Phe-Lys-NH—(CH2)2—CO—NH-TEMPO] (HELM PEPTIDE1{[Cc1cc(O)cc(C)c1C[C@H](N)C(=O)[*:2]].[dR].F.K.[bAla].[CC1(C)CC(N[*:1])CC(C)(C)N1[O]]}$$$$V2.0), the Ki was 2.15 nM at δ receptors and 4.56 nM at μ receptors. Besides, half-maximal inhibition against δ opioid receptor (DOR) (IC50) required 262 nM.

Take `Cc1cc(O)cc(C)c1C[C@H](N)C(=O)N[C@H](CCCNC(=N)N)C(=O)N[C@@H](Cc1ccccc1)C(=O)NC(CCCCNC1CC(C)(C)N([O])C(C)(C)C1)C(N)=O` (stereo partly drawn) [H-Dmt-D-Arg-Phe-Lys(NH-TEMPO)-NH2]: the inhibitory constant (Ki) at δ receptors came to 30.4 nM; at μ receptors it was 0.263 nM. For the same molecule, in the data set with CPIP rats (inferred from centrally mediated analgesic effect after s.c. dosing), the “crossing the blood-brain barrier” value is “capable of crossing the blood-brain barrier”. On δ opioid receptor (DOR), inhibition was half-maximal at 1.15 nM (IC50).

With `Cc1cc(O)cc(C)c1C[C@H](N)C(=O)N[C@H](CCCNC(=N)N)C(=O)N[C@@H](Cc1ccccc1)C(=O)N[C@@H](CCCCNC(=O)[C@@]1(C)CCc2c(C)c(O)c(C)c(C)c2O1)C(N)=O` [H-Dmt-D-Arg-Phe-Lys(Tro[R])-NH2], the Ki at δ receptors worked out at 3.64 nM; at μ receptors, 0.273 nM. Also, it took 0.847 nM to reach half-maximal inhibition on δ opioid receptor (DOR) (IC50).

With `Cc1cc(O)cc(C)c1C[C@H](N)C(=O)N[C@H](CCCNC(=N)N)C(=O)N[C@@H](Cc1ccccc1)C(=O)N[C@@H](CCCCNC(=O)[C@]1(C)CCc2c(C)c(O)c(C)c(C)c2O1)C(N)=O` [H-Dmt-D-Arg-Phe-Lys(Tro[S])-NH2, H-Dmt-D-Arg-Phe-Lys(Tro[S])—NH2], the Ki on δ receptors amounted to 3.48 nM; on μ receptors, 0.252 nM. The molecule also had an IC50 against δ opioid receptor (DOR) of 3.76 nM.

In the case of `CN1CC[C@]23c4c5ccc(O)c4O[C@H]2[C@@H](O)C=C[C@H]3[C@H]1C5` [morphine], in the data set with CPIP rats (Rattus norvegicus, sc, read-out: ED50 ± SEM (analgesic potency)), the ED50 came to 1.55 ± 0.664 mg/kg. Also, in the data set with CPIP rats (relative to morphine (=1), CPIP rats, s.c.), the “Potency Ratio” value amounted to 1.

Turning to `Cc1cc(O)cc(C)c1C[C@H](N)C(=O)N[C@H](CCCNC(=N)N)C(=O)N[C@@H](Cc1ccccc1)C(=O)N[C@@H](CCCCN)C(N)=O` [H-Dmt-D-Arg-Phe-Lys-NH2], in the data set on CPIP rats (reversal of mechanical allodynia in CPIP rats, s.c. administration), the “ED50 ± SEM (analgesic potency)” value was determined as 0.103 ± 0.046 mg/kg.
